Where two headings read alike, the source gives them in different places.
Legend:
in vitro = conditions: human
EBOV (Ebola virus) = assay: microbe, parasite or virus in culture; assay type: cell-based; conditions: Zaire ebolavirus; for inhibition at 1 µg/mL / inhibition at 5 µg/mL / inhibition at 0.1 µg/mL / inhibition at 0.5 µg/mL / inhibition at 0.01 µg/mL / inhibition at 0.05 µg/mL / inhibition at 0.0125 µg/mL: A549, read-out: % Inhibition against EBOV; for inhibition at 1 µg/mL: 1000 ng/mL; for inhibition at 5 µg/mL: 5000 ng/mL; for EC50: A549, read-out: EC50 against EBOV; for inhibition at 0.1 µg/mL: 100 ng/mL; for inhibition at 0.5 µg/mL: 500 ng/mL; for inhibition at 0.01 µg/mL: 10 ng/mL; for inhibition at 0.05 µg/mL: 50 ng/mL; for inhibition at 0.0125 µg/mL: 12.5 ng/mL
[1] = system: VSV (vesicular stomatitis virus); assay: microbe, parasite or virus in culture; assay type: cell-based; conditions: for inhibition at 0.1 µg/mL: A549, 100 ng/mL; for EC50: A549, read-out: EC50 against VSV; for inhibition at 0.01 µg/mL: A549, 10 ng/mL; for inhibition at 0.05 µg/mL: A549, 50 ng/mL; for inhibition at 0.0125 µg/mL: A549, 12.5 ng/mL
H5N1 virus = assay: microbe, parasite or virus in culture; assay type: cell-based, H5N1 influenza virus; conditions: for inhibition at 0.0125 µg/mL / inhibition at 0.05 µg/mL / inhibition at 0.25 µg/mL / inhibition at 1 µg/mL / inhibition at 5 µg/mL / inhibition at 0.1 µg/mL / inhibition at 0.5 µg/mL / EC50 / inhibition at 0.01 µg/mL: Influenza A virus; for inhibition at 0.0125 µg/mL: H5N1, A549, 12.5 ng/mL; for inhibition at 0.0125 µg/mL / inhibition at 0.05 µg/mL / inhibition at 0.25 µg/mL / inhibition at 1 µg/mL / inhibition at 5 µg/mL / inhibition at 0.1 µg/mL / inhibition at 0.5 µg/mL / inhibition at 0.01 µg/mL: read-out: % Inhibition against H5N1 virus; for inhibition at 0.05 µg/mL: H5N1, A549, 50 ng/mL; for inhibition at 0.25 µg/mL: H5N1, A549, 250 ng/mL; for inhibition at 1 µg/mL: H5N1, A549, 1000 ng/mL; for inhibition at 5 µg/mL: H5N1, A549, 5000 ng/mL; for inhibition at 0.1 µg/mL: H5N1, A549, 100 ng/mL; for inhibition at 0.5 µg/mL: H5N1, A549, 500 ng/mL; for EC50: H5N1, A549, read-out: EC50 against H5N1 virus; for inhibition at 0.01 µg/mL: H5N1, A549, 10 ng/mL
A549 cells = assay: cells; conditions: Homo sapiens, A549, read-out: % Inhibition against A549 cells
SARS-CoV-2 = assay: microbe, parasite or virus in culture; assay type: cell-based; conditions: Severe acute respiratory syndrome coronavirus 2, HepG2, read-out: EC50 against SARS-CoV-2
HIV = assay: microbe, parasite or virus in culture; assay type: cell-based; conditions: for EC50: Human immunodeficiency virus 1, A549
[2] = CC50 against the host cell line A549
[3] = read-out: % Inhibition against VSV
[4] = A549, 500 ng/mL, read-out: % Inhibition against VSV

SMILES	CC50 (in vitro; CC50 (nM))	inhibition at 0.0125 µg/mL (H5N1 virus)	inhibition at 0.05 µg/mL (H5N1 virus)	CC50 (in vitro; [2])	EC50 (EBOV (Ebola virus))	EC50 [1]	EC50 (H5N1 virus)	EC50 (SARS-CoV-2)	inhibition at 0.05 µg/mL (EBOV (Ebola virus))	inhibition at 0.05 µg/mL [1, 3]	inhibition at 0.05 µg/mL (A549 cells)	further results
COc1cc2c(OC3OC[C@@H](O)[C@H](OC(=O)N(C)C)[C@H]3O)c3c(c(-c4ccc5c(c4)OCO5)c2cc1OC)C(=O)OC3 (stereo partly drawn) [Compound 31a, 3″-O-dimethylcarbamyl-7-O-β-D-xylosyldiphyllin]	55.8 nM	87.9%	94.4%	–	–	–	–	–	–	–	–	inhibition at 1 µg/mL (EBOV (Ebola virus)): 81.8%; inhibition at 5 µg/mL (EBOV (Ebola virus)): 95.2%; inhibition at 1 µg/mL ([1]; A549, 1000 ng/mL, read-out: % Inhibition against VSV): 80.4%; inhibition at 5 µg/mL ([1]; A549, 5000 ng/mL, read-out: % Inhibition against VSV): 99.6%; inhibition at 0.25 µg/mL (H5N1 virus): 97.6%; inhibition at 1 µg/mL (H5N1 virus): 94.7%; inhibition at 5 µg/mL (H5N1 virus): 98.4%; inhibition at 1 µg/mL (A549 cells): 47.5%; inhibition at 5 µg/mL (A549 cells): 99.8%
COc1cc2c(OC3O[C@H](CO)[C@@H](O)[C@H](O)[C@H]3O)c3c(c(-c4ccc5c(c4)OCO5)c2cc1OC)C(=O)OC3 (stereo partly drawn) [Compound 26f, 7-O-β-D-glucopyranosyldiphyllin]	> 9220 nM	–	–	8650 nM	516 nM	1040 nM	371 nM	–	–	–	–	inhibition at 0.1 µg/mL (EBOV (Ebola virus)): 82.7%; inhibition at 0.5 µg/mL (EBOV (Ebola virus)): 89.1%; inhibition at 0.1 µg/mL [1, 3]: 47.2%; inhibition at 0.5 µg/mL [1, 4]: 70.8%; inhibition at 0.1 µg/mL (H5N1 virus): 62.4%; inhibition at 0.5 µg/mL (H5N1 virus): 87.2%; inhibition at 0.1 µg/mL (A549 cells): -3.84%; inhibition at 0.5 µg/mL (A549 cells): 18.2%
COc1cc2c(OC3O[C@@H]4COC(C)(C)O[C@@H]4[C@H](O)[C@H]3O)c3c(c(-c4ccc5c(c4)OCO5)c2cc1OC)C(=O)OC3 (stereo partly drawn) [Compound 32c, 4″,6″-Acetonide-4-O-β-D-galactopyranosyldiphyllin]	52.7 nM	–	–	1040 nM	20.3 nM	124 nM	5.2 nM	50.8 nM	–	–	–	inhibition at 0.1 µg/mL (EBOV (Ebola virus)): 85.5%; inhibition at 0.5 µg/mL (EBOV (Ebola virus)): 88.2%; inhibition at 0.1 µg/mL [1, 3]: 48.9%; inhibition at 0.5 µg/mL [1, 4]: 88.1%; inhibition at 0.1 µg/mL (H5N1 virus): 65.1%; inhibition at 0.5 µg/mL (H5N1 virus): 88.1%; inhibition at 0.1 µg/mL (A549 cells): 2.9%; inhibition at 0.5 µg/mL (A549 cells): 39.7%
COc1cc2c(OC3O[C@H](C)[C@H](O)[C@H](O)[C@H]3O)c3c(c(-c4ccc5c(c4)OCO5)c2cc1OC)C(=O)OC3 (stereo partly drawn) [Compound 26e, 7-O-β-D-fucopyranosyldiphyllin]	> 9500 nM	–	–	–	–	–	–	30.4 nM	–	–	–	anti-HIV activity (inhibition) (HIV; at 9496.9 nM): no inhibition; inhibition at 1 µg/mL (H5N1 virus): 48.5%; inhibition at 5 µg/mL (H5N1 virus): 88.9%
COc1cc2c(OC3O[C@H](CO)[C@@H]4OC(C)(C)O[C@@H]4[C@H]3O)c3c(c(-c4ccc5c(c4)OCO5)c2cc1OC)C(=O)OC3 (stereo partly drawn) [Compound 32b, 3″, 4″-Acetonide-4-O-β-D-galactopyranosyldiphyllin]	52.7 nM	–	88.1%	30.7 nM	0.85 nM	3.15 nM	0.77 nM	3.01 nM	92.7%	99.6%	76%	inhibition at 0.01 µg/mL (EBOV (Ebola virus)): 86.4%; inhibition at 0.01 µg/mL [1, 3]: 90.9%; inhibition at 0.01 µg/mL (H5N1 virus): 91.7%; inhibition at 0.01 µg/mL (A549 cells): 40.5%
CN(C)CCOc1ccc(/C(=C(/CCCl)c2ccccc2)c2ccccc2)cc1 [Toremifene, toremifene, reference compound]	–	–	–	–	212 nM	–	–	–	–	–	–	inhibition at 0.5 µg/mL (EBOV (Ebola virus)): 93.6%; inhibition at 0.5 µg/mL ([1]; A549, read-out: % Inhibition against VSV): 6.58%; inhibition at 0.5 µg/mL (H5N1 virus): 28.4%; inhibition at 0.5 µg/mL (A549 cells): -15.1%
COc1cc2c(OC3O[C@H](CO)[C@H]4OC(C)(C)O[C@@H]4[C@H]3O)c3c(c(-c4ccc5c(c4)OCO5)c2cc1OC)C(=O)OC3 (stereo partly drawn) [Compound 32a, 3″, 4″-Acetonide-4-O-β-D-glucopyranosyldiphyllin]	52.7 nM	–	–	61.6 nM	1.2 nM	18.1 nM	0.63 nM	2.95 nM	–	–	–	–
COc1cc2c(OC3O[C@H](C)[C@@H](O)[C@H](O)[C@H]3O)c3c(c(-c4ccc5c(c4)OCO5)c2cc1OC)C(=O)OC3 (stereo partly drawn) [Compound 26b, Patentiflorin A]	347 nM	–	–	386 nM	54.8 nM	42.5 nM	4.48 nM	67.2 nM	–	–	–	EC50 (HIV): 21.1 nM
COc1cc2c(OC3O[C@H](C)[C@@H](O)[C@H](OC(=O)c4ccc(N(C)C)cc4)[C@H]3O)c3c(c(-c4ccc5c(c4)OCO5)c2cc1OC)C(=O)OC3 (stereo partly drawn) [Compound 31e, 3″-O-p-dimethylaminobenzoyl-7-O-β-D-patentiflorin A]	17.7 nM	98.1%	97.9%	17.7 nM	1.13 nM	2.41 nM	0.74 nM	–	86.5%	86.3%	66.8%	inhibition at 0.0125 µg/mL (EBOV (Ebola virus)): 77.5%; inhibition at 0.0125 µg/mL [1, 3]: 77.4%; EC50 (HIV): 2.41 nM; % Inhibition against H5N1 virus (H5N1 virus; 12.5 ng/mL): 95.4%; % Inhibition against H5N1 virus (H5N1 virus; 50 ng/mL): 96.5%; inhibition at 0.25 µg/mL (H5N1 virus): 98.4%; inhibition at 0.0125 µg/mL (A549 cells): 53.1%
COc1cc2c(OC3OC[C@@H](O)[C@H](OCc4ccccc4)[C@H]3O)c3c(c(-c4ccc5c(c4)OCO5)c2cc1OC)C(=O)OC3 (stereo partly drawn) [Compound 31l, 3″-O-benzyl-7-O-β-D-xylosyldiphyllin]	–	82.8%	96%	4.85 nM	0.19 nM	0.37 nM	0.013 nM	–	94.2%	98.4%	82.1%	inhibition at 0.0125 µg/mL (EBOV (Ebola virus)): 86.4%; inhibition at 0.0125 µg/mL [1, 3]: 88.7%; % Inhibition against H5N1 virus (H5N1 virus; 12.5 ng/mL): 95.1%; % Inhibition against H5N1 virus (H5N1 virus; 50 ng/mL): 95.6%; inhibition at 0.25 µg/mL (H5N1 virus): 96.8%; inhibition at 0.0125 µg/mL (A549 cells): 52%
COc1cc2c(OC3O[C@H](C)[C@@H](O)[C@H](OC(=O)C4CC4)[C@H]3O)c3c(c(-c4ccc5c(c4)OCO5)c2cc1OC)C(=O)OC3 (stereo partly drawn) [Compound 31g, 3″-O-cyclopropanecarbonyl-7-O-4i-D-patentiflorin A]	26.7 nM	97.9%	97.9%	–	–	–	–	–	90.9%	95.7%	54.6%	inhibition at 0.01 µg/mL (EBOV (Ebola virus)): 79.1%; inhibition at 0.01 µg/mL [1, 3]: 63.3%; % Inhibition against H5N1 virus (H5N1 virus; 50 ng/mL): 89.0%; inhibition at 0.01 µg/mL (H5N1 virus): 78.9%; inhibition at 0.25 µg/mL (H5N1 virus): 98.1%; inhibition at 0.01 µg/mL (A549 cells): 11%
COc1cc2c(N=C(c3ccccc3)c3ccccc3)c3c(c(-c4ccc5c(c4)OCO5)c2cc1OC)C(=O)OC3 [Compound 19p]	> 9200 nM	–	–	–	–	–	–	–	–	–	–	inhibition at 1 µg/mL (EBOV (Ebola virus)): 58.1%; inhibition at 5 µg/mL (EBOV (Ebola virus)): 89.4%; EC50 (HIV): 249 nM; inhibition at 1 µg/mL (H5N1 virus): 82.1%; inhibition at 5 µg/mL (H5N1 virus): 96.5%; inhibition at 1 µg/mL (A549 cells): -13%; inhibition at 5 µg/mL (A549 cells): 17.2%
COc1cc2c(O)c3c(c(-c4ccc5c(c4)OCO5)c2cc1OC)C(=O)OC3 [Compound 5, diphyllin]	3610 nM	–	–	–	–	–	–	150 nM	–	–	–	EC50 (HIV): 37.1 nM
C=CCOC(=O)O[C@@H]1COC(Oc2c3c(c(-c4ccc5c(c4)OCO5)c4cc(OC)c(OC)cc24)C(=O)OC3)[C@H](O)[C@H]1OC(C)=O (stereo partly drawn) [Compound 28ab1, 4″-O-allyl oxycarbonyl-3″-acetyl-7-O-β-D-xylosyldiphyllin]	513 nM	91.8%	86%	190 nM	18.9 nM	3.78 nM	5.05 nM	26.3 nM	82.4%	83.5%	40.9%	inhibition at 0.0125 µg/mL (EBOV (Ebola virus)): 81%; inhibition at 0.0125 µg/mL [1, 3]: 85.9%; inhibition at 0.0125 µg/mL (A549 cells): 35.5%
COc1cc2c(OC3O[C@H](CO)[C@H](O)[C@@H]4OC(C)(C)O[C@@H]34)c3c(c(-c4ccc5c(c4)OCO5)c2cc1OC)C(=O)OC3 (stereo partly drawn) [Compound 32d, 2″,3″-Acetonide-4-O-β-D-galactopyranosyldiphyllin]	52.7 nM	–	–	1350 nM	396 nM	286 nM	200 nM	80.4 nM	–	–	–	inhibition at 0.1 µg/mL (EBOV (Ebola virus)): 65.5%; inhibition at 0.5 µg/mL (EBOV (Ebola virus)): 82.7%; inhibition at 0.1 µg/mL [1, 3]: 100%; inhibition at 0.5 µg/mL [1, 4]: 71.7%; inhibition at 0.1 µg/mL (H5N1 virus): 19.3%; inhibition at 0.5 µg/mL (H5N1 virus): 83.5%; inhibition at 0.1 µg/mL (A549 cells): -2%; inhibition at 0.5 µg/mL (A549 cells): 24.3%
